Where a SMILES comes first, the peptide text is derived from it.
Target: T1, NEP (Rattus norvegicus, UniProt P07861)
T1 construct: incubations of membrane and fresh tissue slice preparations from nervous tissues; from tissue; host or cells: dorsal spinal cord of male Wistar rats (fresh slices or 100 000 x g membrane fraction)
T1 sequence (P07861 1-750): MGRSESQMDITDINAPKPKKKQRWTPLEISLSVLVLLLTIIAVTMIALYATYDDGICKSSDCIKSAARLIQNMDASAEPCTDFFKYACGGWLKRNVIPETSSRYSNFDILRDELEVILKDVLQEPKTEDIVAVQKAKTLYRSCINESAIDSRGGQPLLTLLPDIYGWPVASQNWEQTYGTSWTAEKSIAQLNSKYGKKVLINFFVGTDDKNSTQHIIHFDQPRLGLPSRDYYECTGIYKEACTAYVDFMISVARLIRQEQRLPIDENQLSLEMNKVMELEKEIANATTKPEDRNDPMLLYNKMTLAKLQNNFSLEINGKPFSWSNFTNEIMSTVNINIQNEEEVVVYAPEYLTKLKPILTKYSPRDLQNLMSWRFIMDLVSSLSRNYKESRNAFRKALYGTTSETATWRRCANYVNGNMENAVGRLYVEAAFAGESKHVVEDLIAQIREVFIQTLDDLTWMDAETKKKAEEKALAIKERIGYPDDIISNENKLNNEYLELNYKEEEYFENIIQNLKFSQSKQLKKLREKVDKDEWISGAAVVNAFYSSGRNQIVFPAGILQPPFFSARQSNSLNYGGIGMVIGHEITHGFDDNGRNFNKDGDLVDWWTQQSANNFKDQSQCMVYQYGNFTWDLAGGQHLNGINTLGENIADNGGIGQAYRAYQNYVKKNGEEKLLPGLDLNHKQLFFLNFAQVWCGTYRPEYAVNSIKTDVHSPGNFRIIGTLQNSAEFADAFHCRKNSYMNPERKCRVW
Experiment: Met-enkephalin hydrolysis by rat spinal cord slices and membrane preparations, RP-HPLC analysis
Format: biochemical
Conditions: 10 μM combined with the inhibitors of CPB and DPPIV (10 μM), spinal cord slices, 20 min at 25° C.
Description: FIG. 2-B: […] Retention time) recovered after 20 min. incubation at 25° C. with 1 mg fresh tissue slices in a 1 ml final volume of KRBG buffer. The organs are rapidly removed, dissected on ice, freed of nerve fibers and of adipose tissues and then washed in cold oxygenated glucose- and bicarbonate-containing Krebs Ringer (KRBG) solution, whose composition is the following: 120 mM NaCl-5 mM KCl-1.2 mM KH2PO4-27.5 mM NaHCO3-2.6 mM CaCl2-0.67 mM MgSO4-5.9 mM glucose. The slices of tissues are prepared either manually with the aid of a scalpel (1-2 mm thick), or mechanically with the aid of a “Tissue Chopper” (1 mm thick). Slices are then dispersed into reaction tubes where they are subjected to three successive washes in ice-cold oxygenated KRBG. […] The organs dissected out and washed in ice-cold KRBG are homogenized at 4° C. in 10 volumes (vol./wt.) of 50 mM Tris/HCl buffered at pH 7.2, using a Teflon-glass homogenizer (3×5 sec.). […] The metabolism rate of the NEP-sensitive peptides was measured using the both NEP substrates involved in the signaling of the nociceptive response: the neuropeptides Met-enkephalin and Substance P. […] Their identification and relative quantification (peak height) are checked by continuously monitoring the UV absorbance at 254 nm of column outflow. […]

N=C(N)NCCC[C@H](NC(=O)[C@@H]1CCCN1C(=O)[C@H](CC(N)=O)NC(=O)[C@H](Cc1c[nH]cn1)NC(=O)[C@@H](N)CCC(N)=O)C(=O)O [sialorphin, Gln-His-Asn-Pro-Arg] (H-QHNPR-OH; N-terminus and C-terminus assumed)
inhibition of Met-enkephalinase activity (Met-enkephalin degradation): 80%

Source: patent US7625713B2, “Process for identifying a ligand that binds to the NEP binding site for the SMR1 pentapeptide” (Institut Pasteur, priority 2000, dated 2009)
